Test results from publication PMC10206591, “Identification of small molecules capable of enhancing viral membrane fusion” (Virology Journal, 2023).
Where a name gives a salt, the structure may show the parent alone.

Tested on: SARS-CoV-2 S-mediated membrane fusion

Row | Compound | Z-score
1 | C=C(NC(=O)C(=C)NC(=O)c1csc(C2=N[C@@H]3c4csc(n4)[C@H]4NC(=O)c5csc(n5)[C@H]([C@](C)(O)[C@@H](C)O)NC(=O)[C@H]5CSC(=N5)/C(=C/C)NC(=O)[C@H]([C@@H](C)O)NC(=O)c5csc(n5)[C@]3(CC2)NC(=O)[C@H](C)NC(=O)C(=C)NC(=O)[C@H](C)NC(=O)[C@H]([C@@H](C)CC)N[C@@H]2C=Cc3c([C@H](C)O)cc(nc3[C@H]2O)C(=O)O[C@@H]4C)n1)C(N)=O [Thiostrepton] | 5,52
2 | COc1cc2c(c(OC)c1OC)-c1ccc(OC)c(=O)cc1[C@@H](NC(C)=O)CC2 [Colchicine] | 1,93
3 | O=c1[nH]cc(F)c(=O)[nH]1 [5-fluorouracil] | 3,16
4 | CC(C)Oc1ccc2c(=O)c(-c3ccccc3)coc2c1 [Ipriflavone] | 2,37
5 | CN(C)/N=N/c1[nH]cnc1C(N)=O [Dacarbazine] | 2,34
6 | CCc1c2c(nc3ccc(OC(=O)N4CCC(N5CCCCC5)CC4)cc13)-c1cc3c(c(=O)n1C2)COC(=O)[C@]3(O)CC.Cl.O.O.O [Irinotecan hydrochloride trihydrate] | 4,23
7 | Cl.NC1CCN(c2nc3c(cc2F)c(=O)c(C(=O)O)cn3-c2ccc(F)cc2F)C1 (stereo not shown) [Tosufloxacin hydrochloride] | 1,77
8 | Cl.N[C@@H]1CCCCN(c2c(F)cc3c(=O)c(C(=O)O)cn(C4CC4)c3c2Cl)C1 [Besifloxacin hydrochloride] | 2,15
9 | Tyloxapol | 3,89
10 | CCCOc1ccc2nc(NC(=O)OC)[nH]c2c1 [Oxibendazol] | 2,13
11 | CC1(C)O[C@@H]2C[C@H]3[C@@H]4CCC5=CC(=O)C=C[C@]5(C)[C@H]4[C@@H](O)C[C@]3(C)[C@]2(C(=O)CO)O1 [Desonide] | 1,59
12 | C#C[C@]1(O)CC[C@H]2[C@@H]3CCc4cc(OC)ccc4[C@H]3CC[C@@]21C [Ethynylestradiol 3-methyl ether] | 1,52
13 | C[C@H]1c2cccc(O)c2C(=O)C2=C(O)[C@]3(O)C(=O)C(C(N)=O)=C(O)[C@@H](N(C)C)[C@@H]3[C@@H](O)[C@@H]21 [Doxycycline hydrochloride] | 3,00
14 | COC(=O)Nc1nc2ccc(SC(C)C)cc2[nH]1 [Methiazole] | 3,16
15 | C[C@@H]1C[C@H]2[C@@H]3CCC4=CC(=O)C=C[C@]4(C)[C@@]3(Cl)[C@@H](O)C[C@]2(C)[C@@]1(OC(=O)c1ccco1)C(=O)CCl [Mometasone furoate] | 2,51
16 | Cc1ccc(NC(=O)c2ccc(CN3CCN(C)CC3)cc2)cc1Nc1nccc(-c2cccnc2)n1 [Imatinib] | 2,20
17 | O=c1[nH]c(=O)n([C@H]2C[C@H](O)[C@@H](CO)O2)cc1F [Floxuridine] | 4,71
18 | O=C(O)CN(CCN(CC(=O)O)CC(=O)O)CCN(CC(=O)O)CC(=O)O [Pentetic acid] | 2,14
19 | CCCCCC[C@H]1C(=O)O[C@H](C)[C@H](NC(=O)c2cccc(NC=O)c2O)C(=O)O[C@@H](C)[C@@H]1OC(=O)CC(C)C [Antimycin A] | 4,08
20 | C1CCC(C(CC2CCCCN2)C2CCCCC2)CC1 (stereo not shown) [Perhexiline maleate] | 2,68
21 | N=C(N)c1ccc(OCCCCCOc2ccc(C(=N)N)cc2)cc1 [Pentamidine isethionate] | 6,07
22 | COC(=O)Nc1nc2cc(C(=O)c3ccc(F)cc3)ccc2[nH]1 [Flubendazol] | 3,95
23 | Nc1nc(Cl)nc2c1ncn2[C@H]1C[C@H](O)[C@@H](CO)O1 [Cladribine] | 1,60
24 | C=CC[C@]1(O)CC[C@H]2[C@@H]3CCC4=CC(=O)CCC4=C3C=C[C@@]21C [Altrenogest] | 2,61
25 | Cc1c(OCC(F)(F)F)ccnc1C[S+]([O-])c1nc2ccccc2[nH]1 (stereo not shown) [Lansoprazole] | 3,43

Row | Compound | Z-score
26 | O=C1CN(/N=C/c2ccc([N+](=O)[O-])o2)C(=O)N1 [Nitrofurantoin] | 2,23
27 | CC[C@H](c1ccc(O)cc1)[C@@H](CC)c1ccc(O)cc1 [Hexestrol] | 2,65
28 | COc1cccc2c1C(=O)c1c(O)c3c(c(O)c1C2=O)C[C@@](O)(C(C)=O)C[C@@H]3O[C@H]1C[C@H](N)[C@H](O)[C@H](C)O1 [Daunorubicin hydrochloride] | 1,79
29 | C[C@@H]1CN(c2c(F)c(N)c3c(=O)c(C(=O)O)cn(C4CC4)c3c2F)C[C@H](C)N1 [Sparfloxacin] | 2,09
30 | CC(C)C(=O)c1c(C(C)C)nn2ccccc12 [Ibudilast] | 1,71
31 | CN1CCN(CCCN2c3ccccc3Sc3ccc(S(=O)(=O)N(C)C)cc32)CC1.CS(=O)(=O)O.CS(=O)(=O)O [Thioproperazine dimesylate] | 2,39
32 | COC(=O)Nc1nc2ccc(C(=O)c3cccs3)cc2[nH]1 [Nocodazole] | 2,99
33 | C[C@]12CC[C@H]3C(=CCc4cc(O)ccc43)[C@@H]1CCC2=O [Equilin] | 1,98
34 | CCCOc1ccccc1-c1nc2nn[nH]c2c(=O)[nH]1 [Zaprinast] | 1,64
35 | C[C@]12CC[C@@H]3c4ccc(OC(=O)N(CCCl)CCCl)cc4CC[C@H]3[C@@H]1CC[C@@H]2O [Estramustine] | 3,30
36 | O=C(N[C@H](CO)[C@H](O)c1ccc([N+](=O)[O-])cc1)C(Cl)Cl [Chloramphenicol] | 2,64
37 | CCCCCCC[N+](CC)(CC)CCCCc1ccc(Cl)cc1.Cc1ccc(S(=O)(=O)[O-])cc1 [Clofilium tosylate] | 2,76
38 | COc1ccc(Cc2nccc3cc(OC)c(OC)cc23)cc1OC [Papaverine hydrochloride] | 4,33
39 | COC(=O)Nc1nc2ccc([S+]([O-])c3ccccc3)cc2[nH]1 (stereo not shown) [Oxfendazol] | 1,63
40 | COc1cc2ncnc(Nc3ccc(F)c(Cl)c3)c2cc1OCCCN1CCOCC1 [Gefitinib] | 3,33
41 | CC(=O)Nc1ccc(OCC(O)CNC(C)C)cc1 (stereo not shown) [Practolol] | 1,57
42 | CC[C@H](C)C(=O)O[C@H]1CCC=C2C=C[C@H](C)[C@H](CC[C@@H]3C[C@@H](O)CC(=O)O3)[C@H]21 [Mevastatin] | 1,92
43 | COCCCOc1ccnc(C[S+]([O-])c2nc3ccccc3[nH]2)c1C (stereo not shown) [Rabeprazole Sodium salt] | 3,89
44 | Cc1cc(N)c2ccccc2[n+]1CCCCCCCCCC[n+]1c(C)cc(N)c2ccccc21 [Dequalinium dichloride] | 4,90
45 | Oc1c(Cl)cc(Cl)c(Cl)c1Cc1c(O)c(Cl)cc(Cl)c1Cl [Hexachlorophene] | 3,99
46 | C=CCOC(Cn1ccnc1)c1ccc(Cl)cc1Cl (stereo not shown) [Enilconazole] | 3,25
47 | CN1CCCN(C(c2ccccc2)c2ccc(Cl)cc2)CC1.Cl.Cl (stereo not shown) [Homochlorcyclizine dihydrochloride] | 2,19
48 | O=P(O)(O)C(O)(Cn1ccnc1)P(=O)(O)O [Zoledronic acid hydrate] | 2,27
49 | CN(C)c1ccc(O)c2c1C[C@H]1C[C@H]3[C@H](N(C)C)C(O)=C(C(N)=O)C(=O)[C@@]3(O)C(O)=C1C2=O [Minocycline hydrochloride] | 4,43
